Values quoted from earlier work in article PMC3598812, “Evaluation of Anti-Hyperalgesic and Analgesic Effects of Two Benzodiazepines in Human Experimental Pain: A Randomized Placebo-Controlled Study” (PLoS ONE, 2013).

Assays:
[1] = trial protocol, cited from earlier work
[2] = test system: patients / volunteers; details: placebo-controlled, double-blind trial, 114 outpatients with anxiety; mean doses 59 mg clobazam daily, 25 mg diazepam daily; ref Micromedex 2009; cited from earlier work
[3] = test system: healthy male subjects; parameters: method as in PMID 19038771; details: capsaicin model, previous study; standard deviation 11.54; cited from earlier work

## CCOC(=O)c1ncn2c1CN(C)C(=O)c1cc(F)ccc1-2 [Flumazenil]
[1]; iv
  t1/2: about 50 minutes

## O=C1CC(=O)N(c2ccccc2)c2cc(Cl)ccc2N1 [N-desmethylclobazam]
[1]; drug background
  Half life (t1/2): 50 h

## CN1C(=O)CN=C(c2ccccc2)c2cc(Cl)ccc21 [diazepam]
[2]
  Dizziness, share of treated patients: 11%
  Sedation, share of treated patients: 44%

## CC(C)C[C@H](CN)CC(=O)O [pregabalin]
[3]
  Reduction in the area of hyperalgesia: 10.91 cm^2
